Test [1] deals with ethylene-induced epinasty in tomato plants. As to the kind of experiment: Tomato epinasty test, volatile gas treatment. The test is classed as in vivo, Patio variety tomato seedlings. As to conditions: ethylene 10 ppm v/v injected four hours later, scored visually sixteen hours later, 10 = complete protection, 0 = no protection; for Gas @ 10 ppm: degree of protection against ethylene-induced epinasty, rating on a scale of 0 to 10: compound as volatile gas at 10 ppm v/v. The procedure:
(§1) Objective: The test procedure is designed to determine the ability of an experimental compound to block the epinastic growth response induced by ethylene in tomato plants when the experimental compound is administered either as a volatile gas or as a component of a spray solution.
(§2) Treatment chambers are of an appropriate size for the test plants and are airtight. Each is fitted with a reusable septum to be used for injection of ethylene. Test plants are Patio variety tomato seedlings planted two plants per three inch square plastic pot.
Volatile gas treatment entails placing two pots of Patio var. tomatoes into a polystyrene 4.8 L volume treatment chamber along with one-half (upper or lower section) of a 50×9 mm plastic Petri dish containing a Gelman filter pad. The appropriate amount of experimental compound, dissolved in 1.0 ml acetone, is pipetted onto the filter pad and the chamber immediately sealed. Four hours later ethylene gas equal to 10 ppm v/v final concentration is injected into the sealed chamber. Sixteen hours later the chambers are opened in an exhaust hood, allowed to air and the plants scored visually for the degree of protection against ethylene-induced epinasty conferred by the experimental compound when compared to ethylene treated and untreated controls on a scale of 0 to 10. A rating of 10 means complete protection. A rating of 0 means no protection from the effects of ethylene. Gas treatment concentrations are volume/volume.

For test [2] the test system is unchanged. The experiment in a line: Tomato epinasty test, spray application treatment. The format is in vivo, Patio variety tomato seedlings. As to conditions: spray at 10 ppm in 10% acetone/90% water with 0.05% Silwett L-77; air-dried four hours; ethylene 10 ppm v/v; scored visually sixteen hours later; 10 = complete protection, 0 = no protection. The procedure:
as §1, §2
Spray application treatment entails using a DeVilbiss atomizer to completely cover all foliage and stems of two pots of Patio var. tomato plants with the appropriate amount of experimental compound dissolved in 10% acetone/90% water with 0.05% Silwett L-77 surfactant. Plants are air-dried in a drying hood for four hours then transferred to a 4.8 L polystyrene chamber which is sealed.
Ethylene gas equal to 10 ppm v/v final concentration is injected into the sealed chamber. Sixteen hours later the chambers are opened in an exhaust hood, allowed to air and the plants scored visually for the degree of protection against ethylene-induced epinasty conferred by the experimental compound when compared to ethylene treated and untreated controls on a scale of 0 to 10. A rating of 10 means complete protection. […]

2 compounds from patent publication US7041625B2, “Method to inhibit ethylene responses in plants” (Rohm and Haas Company, priority 2003, dated 2006) can be followed below.

On to `C1=C2CCCCCC12` (centres unmarked) [Compound 1, Bicyclo[5.1.0]oct-1(8)-ene], for which the “Gas @ 10 ppm: degree of protection against ethylene-induced epinasty, rating on a scale of 0 to 10” value in test [1] amounted to 8. For the same compound, the “Spray @ 10 ppm: degree of protection against ethylene-induced epinasty, rating on a scale of 0 to 10” value in test [2] turned out to be 0.

For the compound `CCCCCCCCC1=CC12OCC(C)(C)CO2` [Compound 2, 6.6-Dimethyl-1-octyl-4.8-dioxa-spiro[2.5]oct-1-ene], the “Gas @ 10 ppm: degree of protection against ethylene-induced epinasty, rating on a scale of 0 to 10” value in test [1] came to 0. Also, the “Gas @ 1000 ppm: degree of protection against ethylene-induced epinasty, rating on a scale of 0 to 10” value in test [1] (compound as volatile gas at 1000 ppm v/v) was 4. Also, the “Spray @ 10 ppm: degree of protection against ethylene-induced epinasty, rating on a scale of 0 to 10” value in test [2] worked out at 0.
